One test deals with T1, CK1α (Homo sapiens, UniProt P48729+Q96SW2).
T1 construct: CSNK1A1-HiBit KI HEK293(LgBit) Cells; host or cells: HEK293(LgBit) knock-in cells
The test can be described thus: HiBiT degradation assay, CK1α, Procedure A. The format is cell-based. In a few lines: (§1)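 Six-hour treatment at 37° C, ten doses between 10 μM and 0.005 μM, then HiBiT lytic luminescence. Fitted DC50 and Ymin.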

A further test addresses GSPT1 (Homo sapiens, UniProt P15170+Q96SW2). The test can be described thus: HiBiT degradation assay, GSPT1, Procedure A. Format: cell-based. Set-up: HiBit-GSPT1 KI HEK293(LgBit) Cells; host or cells: HEK293(LgBit) knock-in cells. In a few lines: as §1

By DC50 is commonly meant the midpoint of the concentration-degradation curve. Low values mean degradation at low concentration, high ones degradation only at high concentration.

T1 sequence (P48729 whole entry): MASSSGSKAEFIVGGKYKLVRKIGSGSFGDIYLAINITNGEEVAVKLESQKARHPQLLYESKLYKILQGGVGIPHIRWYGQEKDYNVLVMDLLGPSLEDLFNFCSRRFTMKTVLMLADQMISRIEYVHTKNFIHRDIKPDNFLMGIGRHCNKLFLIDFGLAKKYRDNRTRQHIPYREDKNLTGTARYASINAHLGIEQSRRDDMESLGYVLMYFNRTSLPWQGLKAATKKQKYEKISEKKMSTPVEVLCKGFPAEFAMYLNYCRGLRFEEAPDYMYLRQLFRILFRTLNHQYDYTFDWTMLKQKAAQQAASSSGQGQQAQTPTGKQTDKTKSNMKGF
T1 sequence (Q96SW2 whole entry): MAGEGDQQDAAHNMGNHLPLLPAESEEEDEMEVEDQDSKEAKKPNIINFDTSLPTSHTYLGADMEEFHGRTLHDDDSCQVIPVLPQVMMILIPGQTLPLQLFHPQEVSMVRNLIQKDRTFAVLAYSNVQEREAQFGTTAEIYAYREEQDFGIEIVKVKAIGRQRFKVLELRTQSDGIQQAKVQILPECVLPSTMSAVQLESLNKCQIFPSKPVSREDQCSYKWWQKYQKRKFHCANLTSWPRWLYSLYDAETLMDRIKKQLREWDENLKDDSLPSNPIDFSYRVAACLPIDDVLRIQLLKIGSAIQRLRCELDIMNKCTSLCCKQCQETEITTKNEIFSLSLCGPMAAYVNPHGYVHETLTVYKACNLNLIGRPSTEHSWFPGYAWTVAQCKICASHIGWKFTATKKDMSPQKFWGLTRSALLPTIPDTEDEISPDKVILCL
T1 sequence (Q16531 whole entry partner): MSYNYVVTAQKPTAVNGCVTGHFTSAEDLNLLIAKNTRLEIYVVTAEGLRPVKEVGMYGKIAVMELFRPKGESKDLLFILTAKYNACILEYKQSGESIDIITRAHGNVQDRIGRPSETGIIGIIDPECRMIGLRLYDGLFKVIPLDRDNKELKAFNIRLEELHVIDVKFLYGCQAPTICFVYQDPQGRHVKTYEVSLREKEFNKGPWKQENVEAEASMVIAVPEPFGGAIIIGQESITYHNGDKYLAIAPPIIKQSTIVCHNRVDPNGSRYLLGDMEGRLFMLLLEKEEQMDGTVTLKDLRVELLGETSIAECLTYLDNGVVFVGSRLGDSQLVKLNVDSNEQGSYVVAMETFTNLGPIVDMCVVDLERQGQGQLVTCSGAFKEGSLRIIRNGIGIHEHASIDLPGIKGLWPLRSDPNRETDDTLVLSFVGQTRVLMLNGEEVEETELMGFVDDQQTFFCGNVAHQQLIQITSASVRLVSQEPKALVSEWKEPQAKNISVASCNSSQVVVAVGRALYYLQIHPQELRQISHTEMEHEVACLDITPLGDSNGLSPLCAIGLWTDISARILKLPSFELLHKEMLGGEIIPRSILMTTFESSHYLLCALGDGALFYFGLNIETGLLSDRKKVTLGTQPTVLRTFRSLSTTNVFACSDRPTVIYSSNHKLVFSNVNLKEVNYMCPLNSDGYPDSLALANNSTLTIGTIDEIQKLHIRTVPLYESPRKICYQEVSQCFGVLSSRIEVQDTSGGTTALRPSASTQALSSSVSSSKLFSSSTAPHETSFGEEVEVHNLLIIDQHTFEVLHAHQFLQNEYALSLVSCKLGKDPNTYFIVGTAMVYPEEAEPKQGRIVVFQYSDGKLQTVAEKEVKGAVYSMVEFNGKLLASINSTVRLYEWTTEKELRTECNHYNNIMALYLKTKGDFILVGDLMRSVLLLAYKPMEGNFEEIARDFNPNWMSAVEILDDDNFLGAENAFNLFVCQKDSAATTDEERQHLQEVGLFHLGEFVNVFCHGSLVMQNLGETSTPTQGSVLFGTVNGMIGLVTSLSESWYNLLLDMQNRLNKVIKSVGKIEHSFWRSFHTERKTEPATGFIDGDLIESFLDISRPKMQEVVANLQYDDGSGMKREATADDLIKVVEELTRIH
Sequence of GSPT1 (P15170 whole entry): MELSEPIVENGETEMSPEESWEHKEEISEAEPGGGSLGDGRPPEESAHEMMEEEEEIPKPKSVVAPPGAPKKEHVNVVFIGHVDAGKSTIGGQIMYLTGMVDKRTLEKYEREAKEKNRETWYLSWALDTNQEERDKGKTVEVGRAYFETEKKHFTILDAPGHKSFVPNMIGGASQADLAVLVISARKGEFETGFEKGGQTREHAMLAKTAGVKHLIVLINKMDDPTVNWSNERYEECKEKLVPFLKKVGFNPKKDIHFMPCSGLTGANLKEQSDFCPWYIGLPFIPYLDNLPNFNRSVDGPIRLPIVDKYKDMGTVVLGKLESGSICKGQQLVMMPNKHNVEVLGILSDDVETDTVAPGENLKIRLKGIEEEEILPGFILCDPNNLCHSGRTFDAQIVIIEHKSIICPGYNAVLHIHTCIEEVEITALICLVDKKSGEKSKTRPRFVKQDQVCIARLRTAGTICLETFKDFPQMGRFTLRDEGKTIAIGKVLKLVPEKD
Sequence of GSPT1 (Q96SW2 whole entry): as the sequence (Q96SW2 whole entry) above
Sequence of GSPT1 (Q16531 whole entry partner): as the sequence (Q16531 whole entry partner) above

For the molecule `COCCCOc1ccc(-c2c(-c3ccc4c(c3)CN(C3CCC(=O)NC3=O)C4=O)cnn2C)cc1` (centres unmarked) [Example 411], on CK1α (six hours), the “CK1α Ymin” value is reported as “E (E = >25-75% remaining)” and the DC50 is below 25 nM. Further, on GSPT1 (six hours), the DC50 is at least 25 nM and the “GSPT1 Ymin” value is “F (F = >75-100% remaining)”.

With `Cn1ncc(-c2ccc3c(c2)CN(C2CCC(=O)NC2=O)C3=O)c1-c1ccc(F)cc1F` (centres unmarked) [Example 130], at CK1α (six hours incubation), the “CK1α Ymin” value is listed as “E (E = >25-75% remaining)” and the DC50 was below 25 nM. Further, on GSPT1 (six hours incubation), the DC50 is at least 25 nM and the “GSPT1 Ymin” value is reported as “F (F = >75-100% remaining)”.

As for `O=C1CCC(N2Cc3cc(-n4ccc(-c5ccccc5)n4)ccc3C2=O)C(=O)N1` (centres unmarked) [Example 551, 3-(1-oxo-5-(3-phenyl-1H-pyrazol-1-yl)isoindolin-2-yl)piperidine-2,6-dione], on CK1α (six hours), the “CK1α Ymin” value was “E (E = >25-75% remaining)” and the DC50 was below 25 nM. For the same molecule, on GSPT1 (six hours), the DC50 was at least 25 nM and the “GSPT1 Ymin” value is reported as “F (F = >75-100% remaining)”.

`Cn1cnc(-c2ccc3c(c2)CN(C2CCC(=O)NC2=O)C3=O)c1-c1ccc(C(=O)Nc2ccccn2)cc1` (centres unmarked) [Example 447]: on CK1α (six hours), the “CK1α Ymin” value is “D (D = >10- 25% remaining)” and the DC50 is at least 25 nM. For the same molecule, on GSPT1 (six hours), the DC50 was at least 25 nM and the “GSPT1 Ymin” value is reported as “F (F = >75-100% remaining)”.

Consider `O=C1CCC(N2Cc3cc(-c4cnn(-c5ccccc5)c4)ccc3C2=O)C(=O)N1` (centres unmarked) [Example 9, 3-(1-Oxo-5-(1-phenyl-1H-pyrazol-4-yl)isoindolin-2-yl)piperidine-2,6-dione], for which, on CK1α (six hours incubation), the “CK1α Ymin” value is listed as “E (E = >25-75% remaining)” and the DC50 was at least 25 nM. For the same molecule, at GSPT1 (six hours incubation), the DC50 was at least 25 nM and the “GSPT1 Ymin” value is reported as “E (E = >25-75% remaining)”.

In the case of `Cc1sccc1-c1c(-c2ccc3c(c2)CN(C2CCC(=O)NC2=O)C3=O)cnn1C` (centres unmarked) [Example 66], on CK1α (six hours incubation), the “CK1α Ymin” value was “E (E = >25-75% remaining)” and the DC50 is at least 25 nM. In addition, on GSPT1 (six hours incubation), the DC50 is at least 25 nM and the “GSPT1 Ymin” value is recorded as “F (F = >75-100% remaining)”.

With `Cn1cnc(-c2ccc3c(c2)CN(C2CCC(=O)NC2=O)C3=O)c1-c1ccc(S(C)(=O)=O)cc1` (centres unmarked) [Example 306], on CK1α (six hours incubation), the “CK1α Ymin” value is on record as “E (E = >25-75% remaining)” and the half-maximal degradation concentration (DC50) is at least 25 nM. For the same molecule, on GSPT1 (six hours incubation), the DC50 was at least 25 nM and the “GSPT1 Ymin” value is “E (E = >25-75% remaining)”.

On to `Cn1cnc(-c2ccc3c(c2)CN(C2CCC(=O)NC2=O)C3=O)c1-c1ccc(COc2ccccc2)cc1` (centres unmarked) [Example 311], for which, at CK1α (six hours incubation), the “CK1α Ymin” value is recorded as “D (D = >10- 25% remaining)” and the DC50 is below 25 nM. In addition, at GSPT1 (six hours incubation), the DC50 was below 25 nM and the “GSPT1 Ymin” value was “E (E = >25-75% remaining)”.

Consider `CN1CCN(Cc2ccc(-c3c(-c4ccc5c(c4)CN(C4CCC(=O)NC4=O)C5=O)ncn3C)cc2)CC1` (centres unmarked) [Example 313], for which, at CK1α (six hours incubation), the “CK1α Ymin” value is “D (D = >10- 25% remaining)” and the DC50 was at least 25 nM. Moreover, on GSPT1 (six hours incubation), the DC50 was at least 25 nM and the “GSPT1 Ymin” value was “F (F = >75-100% remaining)”.

In the case of `Cn1ncc(-c2ccc3c(c2)CN(C2CCC(=O)NC2=O)C3=O)c1-c1ccc(Cl)cc1Cl` (centres unmarked) [Example 148], at CK1α (six hours incubation), the “CK1α Ymin” value was “E (E = >25-75% remaining)” and the DC50 is below 25 nM. Also, at GSPT1 (six hours incubation), the DC50 was below 25 nM and the “GSPT1 Ymin” value is reported as “F (F = >75-100% remaining)”.

`Cc1sccc1-c1c(-c2ccc3c(c2)CN(C2CCC(=O)NC2=O)C3=O)ncn1C` (centres unmarked) [Example 231]: on CK1α (six hours incubation), the “CK1α Ymin” value is “D (D = >10- 25% remaining)” and the DC50 was below 25 nM. Moreover, at GSPT1 (six hours incubation), the DC50 was at least 25 nM and the “GSPT1 Ymin” value was “F (F = >75-100% remaining)”.

Consider `Cn1cnc(-c2ccc3c(c2)CN(C2CCC(=O)NC2=O)C3=O)c1-c1cccc(C(=O)NC2CCCCC2)c1` (centres unmarked) [Example 302], for which, on CK1α (six hours incubation), the “CK1α Ymin” value is given as “E (E = >25-75% remaining)” and the DC50 is at least 25 nM. In addition, on GSPT1 (six hours incubation), the DC50 was at least 25 nM and the “GSPT1 Ymin” value is given as “F (F = >75-100% remaining)”.

Turning to `Cn1cnc(-c2ccn3c(=O)n(C4CCC(=O)NC4=O)nc3c2)c1-c1ccccc1` (centres unmarked) [Example 20, 3-(7-(1-Methyl-5-phenyl-1H-imidazol-4-yl)-3-oxo-[1,2,4]triazolo[4,3-a]pyridin-2 (3H)-yl)piperidine-2,6-dione], on CK1α (six hours incubation), the “CK1α Ymin” value is recorded as “E (E = >25-75% remaining)” and the DC50 is at least 25 nM. At GSPT1 (six hours incubation), the DC50 was at least 25 nM and the “GSPT1 Ymin” value is given as “E (E = >25-75% remaining)”.

Consider `Cc1ccc(-c2nc(-c3ccc4c(c3)CN(C3CCC(=O)NC3=O)C4=O)cn2C)cc1` (centres unmarked) [Example 568], for which, at CK1α (six hours), the “CK1α Ymin” value was “C (C = 0-10% remaining)” and the DC50 was below 25 nM. For the same molecule, at GSPT1 (six hours), the DC50 was below 25 nM and the “GSPT1 Ymin” value is “F (F = >75-100% remaining)”.

`Cn1cnc(-c2ccc3c(c2)CN(C2CCC(=O)NC2=O)C3=O)c1-c1cccc(-n2cccn2)c1` (centres unmarked) [Example 516]: at CK1α (six hours), the “CK1α Ymin” value is given as “D (D = >10- 25% remaining)” and the DC50 was below 25 nM. In addition, at GSPT1 (six hours), the DC50 is below 25 nM and the “GSPT1 Ymin” value is recorded as “F (F = >75-100% remaining)”.

For `Cc1cc(-c2c(-c3ccc4c(c3)CN(C3CCC(=O)NC3=O)C4=O)cnn2C)ccc1F` (centres unmarked) [Example 91], at CK1α (six hours incubation), the “CK1α Ymin” value is “E (E = >25-75% remaining)” and the DC50 is below 25 nM. At GSPT1 (six hours incubation), the DC50 was at least 25 nM and the “GSPT1 Ymin” value is recorded as “E (E = >25-75% remaining)”.

`Cn1cnc(-c2ccc3c(c2)CN(C2CCC(=O)NC2=O)C3=O)c1-c1ccsc1` (centres unmarked) [Example 226]: on CK1α (six hours incubation), the “CK1α Ymin” value is on record as “C (C = 0-10% remaining)” and the DC50 is below 25 nM. At GSPT1 (six hours incubation), the half-maximal degradation concentration (DC50) is below 25 nM and the “GSPT1 Ymin” value is given as “E (E = >25-75% remaining)”.

As for `Cn1ncc(-c2ccc3c(c2)CN(C2CCC(=O)NC2=O)C3=O)c1C1=CCCCC1` (centres unmarked) [Example 589], on CK1α (six hours), the “CK1α Ymin” value was “E (E = >25-75% remaining)” and the DC50 was below 25 nM. On GSPT1 (six hours), the DC50 was at least 25 nM and the “GSPT1 Ymin” value is given as “F (F = >75-100% remaining)”.

For the molecule `Cn1ncc(-c2ccc3c(c2)CN(C2CCC(=O)NC2=O)C3=O)c1-c1ccc(N2CCOCC2)nc1` (centres unmarked) [Example 466], on CK1α (six hours), the “CK1α Ymin” value is on record as “F (F = >75-100% remaining)” and the DC50 was below 25 nM. For the same molecule, on GSPT1 (six hours), the DC50 is at least 25 nM and the “GSPT1 Ymin” value is given as “F (F = >75-100% remaining)”.

Turning to `Cn1cnc(-c2ccc3c(c2)CN(C2CCC(=O)NC2=O)C3=O)c1-c1ccc(-c2ccncc2)cc1` (centres unmarked) [Example 305], on CK1α (six hours incubation), the “CK1α Ymin” value is recorded as “C (C = 0-10% remaining)” and the DC50 is below 25 nM. At GSPT1 (six hours incubation), the DC50 was below 25 nM and the “GSPT1 Ymin” value is reported as “F (F = >75-100% remaining)”.

With `Cn1ncc(-c2ccc3c(c2)CN(C2CCC(=O)NC2=O)C3=O)c1-c1c[nH]c2ccccc12` (centres unmarked) [Example 474], on CK1α (six hours), the “CK1α Ymin” value was “D (D = >10- 25% remaining)” and the DC50 was below 25 nM. Moreover, on GSPT1 (six hours), the DC50 was at least 25 nM and the “GSPT1 Ymin” value was “F (F = >75-100% remaining)”.

Regarding `Cn1cnc(-c2ccc3c(c2)CN(C2CCC(=O)NC2=O)C3=O)c1-c1ccn(-c2ccc(F)cc2)n1` (centres unmarked) [Example 530], on CK1α (six hours), the “CK1α Ymin” value was “E (E = >25-75% remaining)” and the DC50 is below 25 nM. On GSPT1 (six hours), the DC50 was below 25 nM and the “GSPT1 Ymin” value is on record as “F (F = >75-100% remaining)”.

As for `O=C1CCC(N2Cc3cc(-c4ccnn4-c4ccccc4)ccc3C2=O)C(=O)N1` (centres unmarked) [Example 6, 3-(1-oxo-5-(1-phenyl-1H-pyrazol-5-yl)isoindolin-2-yl)piperidine-2,6-dione], on CK1α (six hours incubation), the “CK1α Ymin” value is on record as “E (E = >25-75% remaining)” and the DC50 is at least 25 nM. Moreover, at GSPT1 (six hours incubation), the DC50 is at least 25 nM and the “GSPT1 Ymin” value was “F (F = >75-100% remaining)”.

As to `Cn1cnc(-c2ccc3c(c2)CN(C2CCC(=O)NC2=O)C3=O)c1-c1ccccc1C1CC1` (centres unmarked) [Example 347], on CK1α (six hours incubation), the “CK1α Ymin” value was “E (E = >25-75% remaining)” and the DC50 was below 25 nM. Further, on GSPT1 (six hours incubation), the DC50 was at least 25 nM and the “GSPT1 Ymin” value is given as “F (F = >75-100% remaining)”.

`Cn1cnc(-c2ccc3c(c2)CN(C2CCC(=O)NC2=O)C3=O)c1-c1cccs1` (centres unmarked) [Example 506]: on CK1α (six hours), the “CK1α Ymin” value was “C (C = 0-10% remaining)” and the DC50 was below 25 nM. In addition, on GSPT1 (six hours), the DC50 is below 25 nM and the “GSPT1 Ymin” value is “E (E = >25-75% remaining)”.

As to `Cc1ccc(F)c(-c2nc(-c3ccc4c(c3)CN(C3CCC(=O)NC3=O)C4=O)cn2C)c1` (centres unmarked) [Example 561], on CK1α (six hours), the “CK1α Ymin” value was “C (C = 0-10% remaining)” and the DC50 was below 25 nM. In addition, at GSPT1 (six hours), the DC50 was below 25 nM and the “GSPT1 Ymin” value is given as “F (F = >75-100% remaining)”.

For `Cn1cnc(-c2ccc3c(c2)CN(C2CCC(=O)NC2=O)C3=O)c1-c1ccccc1F` (centres unmarked) [Example 164], on CK1α (six hours incubation), the “CK1α Ymin” value is listed as “C (C = 0-10% remaining)” and the DC50 was below 25 nM. Further, at GSPT1 (six hours incubation), the DC50 was below 25 nM and the “GSPT1 Ymin” value was “E (E = >25-75% remaining)”.

In the case of `Cn1cnc(-c2ccc3c(c2)CN(C2CCC(=O)NC2=O)C3=O)c1-c1ccc2ccn(C)c2c1` (centres unmarked) [Example 529], on CK1α (six hours), the “CK1α Ymin” value is reported as “D (D = >10- 25% remaining)” and the DC50 is below 25 nM. At GSPT1 (six hours), the DC50 was below 25 nM and the “GSPT1 Ymin” value is “F (F = >75-100% remaining)”.

For `Cn1ncc(-c2ccc3c(c2)CN(C2CCC(=O)NC2=O)C3=O)c1-c1ccn(C)c(=O)c1` (centres unmarked) [Example 457], at CK1α (six hours), the “CK1α Ymin” value was “E (E = >25-75% remaining)” and the DC50 was at least 25 nM. Also, at GSPT1 (six hours), the DC50 is at least 25 nM and the “GSPT1 Ymin” value was “F (F = >75-100% remaining)”.

For the origin of these results see patent US20240158370A1, “CK1 alpha AND DUAL CK1 alpha / GSPT1 DEGRADING COMPOUNDS” (Innovo Therapeutics, Inc., priority 2022, published 2024).
